Data from patent US8697839B2, “GQ protein competitive inhibitory polypeptides, preparation methods and uses thereof” (Third Military Medical University, priority 2008, dated 2014).
Marks after values point to notes of the source that are not given here.

How the values were obtained:
[1] = system: rats with spontaneous hypertension (SHR); test: myocardial remodeling and blood pressure in rats with spontaneous hypertension (SHR); assay type: in vivo, rat; settings: for Systolic blood pressure of artery / EF (ejection fraction) / FS (shortening fraction) / IVST (intervertricular septum thickness) / LAD (left atrium sinistrum diameter) / LVEDD (left ventricular end diastolic diameter) / LVESD / PWT (left ventricular posterior wall thickness) / SV (stroke volume) / HI / HW / LVI / LVW / CSA (cross section area of the cardiocyte) / TDM (trans diameter of the cardiocyte): SHR, x ± s, n = 6; for EF (ejection fraction) / FS (shortening fraction) / IVST (intervertricular septum thickness) / LAD (left atrium sinistrum diameter) / LVEDD (left ventricular end diastolic diameter) / LVESD / PWT (left ventricular posterior wall thickness) / SV (stroke volume): echocardiography; for HI / HW / LVI / LVW: eight weeks
Protocol: 1. Thirty 13-week-old rats with spontaneous hypertension (SHR, purchased from Beijing Vital River Laboratory Animal Technology Co. Ltd., Beijing) were selected and randomly assigned into five groups with 6 rats per group:
SHR model group (Vehicle): 0.9% physiological saline, intraperitoneal injection at a dosage of 5 ml/kg, bid.
Positive control group (losartan): potassium losartan at a dosage of 6 mg/kg, intragastric administration, qd.
The pentadecapeptide group: administration of the pentadecapeptide at a dosage of 30 μg/kg by intraperitoneal injection, bid.
The heptacosapeptide group: administration of the heptacosapeptide at a dosage of 30 μg/kg by intraperitoneal injection, bid.
The pantapentacontapeptide group: administration of the pantapentacontapeptide at a dosage of 30 μg/kg by intraperitoneal injection, bid.
Six of INKY (Wistar-Kyoto) rats (purchased from Center for Experimental Animals, Third Military Medical University) were additionally selected as the normal control.
2. Intervention with the drug was performed consecutively for eight weeks (from Week 14 to Week 21). The body weights of all the tested rats were obtained once every two weeks, and the administration dosage was adjustedbased on body weights.

[2] = clinical dosage converted into the dosage in the mouse; cited from earlier work
[3] = system: cultured cardiocytes of the rats (hypertrophy induced by NE); test: protein content in rat cardiocyte hypertrophy induced by norepinephrine (Lowry method); assay type: cell-based, Wistar rats
Source text: 1. Wistar rats 1-3 day postpartum (purchased from Center for Experimental Animal, Third Military Medical University) was used, sacrificed by cervical dislocation, and fixed on a dissecting table. The ventral skin of the corpus was disinfected with 2% iodine tincture and then 75% ethanol. The heart was removed, cutted into pieces of about 1-3 mm^3, digested repeatedly with a digestion solution containing 0.08% trypase, 0.02% EDTA, and 0.05% collogen. The cells were collected in DMEM containing 10% fetal bovine serum and cultured in an incubator at 37° C., 5% CO2.
2. The cardiocytes cultured for 48 h were subjected to replacement of the DMEM with a serum-free DMEM culture media and further cultured for 24 h before addition of a drug according to the following groups: • Normal control group; 10 μl of PBS was added. • Norepinephrine group; norepinephrine (NE, Serva Corporation, USA) was added at 1 μmol/L. • Polypeptide-dosed group: NE was added, while the corresponding polypeptide drug was added at 10 nmol/L.
3. After addition of the drug, the cells were further cultured for 24 h and then the culture media was discarded. The culture was washed with PBS, followed by adding 0.5 ml of 5% trichloracetic acid per well, and left at 4° C. for 1 h. The precipitate was dissolved in 1 ml of 0.1 mol/L NaOH. The protein content was determined by Lowry method.

[4] = system: hypertrophic cardiocyte induced by angiotensin II; test: protein content in rat cardiocyte hypertrophy induced by angiotensin II (Lowry method); assay type: cell-based
Protocol: 1. The cardiocytes were cultured for 48 h in the same way as described above, then subjected to replacement of the DMEM with a serum-free DMEM culture media, and further cultured for 24 h before addition of a drug according to the following groups: normal control group: 10 μl of PBS was added; Ang II group; Ang II was added at 1 μmol/L; serial polypeptide-dosed group: Ang II was added, while each of the dodecapeptide, pentadecapeptide, heptacosapeptide, pantapentacontapeptide was added at 10 nmol/L.
2. After addition of the drug, the cells were further cultured for 24 h and then the culture media was discarded. The culture was washed with PBS, followed by adding 0.5 ml of 5% trichloracetic acid per well, and left at 4° C. for 1 h. The precipitate was dissolved in 1 ml of 0.1 mol/L NaOH. The protein content was determined by Lowry method.

[5] = system: myocardial hypertrophy in mice induced by norepinephrine; test: myocardial hypertrophy in mice induced by norepinephrine; assay type: in vivo
Protocol: Fifty of the mice used in the experiment (purchased from Center for Experimental Animals, Third Military Medical University) was assigned into five groups with 10 mice per group. The mice in the control group were administrated with 0.1% ascorbic acid-3 mg % potassium sodium tartrate-physiological saline, The mice in the model group were administrated with 0.1% ascorbic acid-6 mg % norepinephrine bitartrate-physiological saline (equivalent to 1.5 mg/kg NE); The mice in three dosing groups were administrated with the pentadecapeptide, the heptacosapeptide, and the pantapentacontapeptide at 30 μg/kg respectively, while administration of 0.1% ascorbic acid—6 mg % norepinephrine bitartrate—physiological saline. The administration was performed consecutively by intraperitoneal injection (ip), twice a day (bid), for 15 days. The dosing volumes for each group were 50 ml/kg. Then, the animals were sacrificed by cervical dislocation. The heart was removed by thoracotomy, washed with the chilled physiological saline to get rid of blood stain, blotted with filter paper, weighed on a scale. The atriums and the right ventricle were carefully removed (with the interventricular septum left), and the left ventricle was weighed.

[6] = system: myocardial hypertrophy in rats induced by norepinephrine; test: myocardial hypertrophy in rats induced by norepinephrine; assay type: in vivo, Wistar rats
Protocol: Thirty of Wistar rats were selected and assigned into five groups with 6 rats per group. The rats in the control group were administrated with 0.1% ascorbic acid-3 mg % potassium sodium tartrate-physiological saline; the rats in the model group were administrated with 0.1% ascorbic acid-6 mg % norepinephrine bitartrate-physiological saline; the rats in the three dosing groups were administrated with the pentadecapeptide, the heptacosapeptide, and the pantapentacontapeptide at 15 μg/kg respectively, while administration of norepinephrine. The dosing volume for each group was 33 ml/kg, and the administration was performed consecutively by ip, bid, for 20 days. At that time, the heart and left ventricle were weighed.

[7] = system: myocardial hypertrophy in rats induced by aortic coarctation; test: myocardial hypertrophy in rats induced by aortic coarctation; assay type: in vivo, Wistar rats; settings: 15 μg/kg ip once a day, 3 weeks post operation; x ± SEM
Source text: Healthy male Wistar rats (purchased from Center for Experimental Animals, Third Military Medical University) were randomly assigned into the following groups: the sham-operation group, operation model group (SRS), and polypeptide-dosing group. Before the operation, animals were fasted overnight and given Ad libitum access to water, and then anesthetized with pentobarbital sodium and underwent celiotomy. The abdominal aorta was separated, and a […] needle (0.80 mm outer diameter) was fastened along the abdominal aorta above the right renal artery with a silk suture before the needle was quickly removed. Then, the abdomen was closed by suturation. The rats in the sham operation group were subjected to the same treatment as the aforementioned, except no ligation with silk suture. From the first day post operation, the rats in the sham operation control group and in the operation model group were administrated with physiological saline at 7.5 ml/kg, ip, once a day; the rats in the dosing group were administrated with the pentadecapeptide, heptacosapeptide, and pantapentacontapeptide at 15 μg/kg respectively, ip, once a day. Rats were reared routinely for 3 weeks and then sacrificed. The heart was removed by thoracotomy, washed with the chilled physiological saline to get rid of blood stain, blotted with filter paper. The heart and the left ventricle were weighed on a scale.

[8] = losartan 6 mg/kg intragastric qd
[9] = polypeptide 30 μg/kg ip bid 15 days with NE, x ± s
[10] = polypeptide 15 μg/kg ip bid 20 days with norepinephrine, n = 6, x ± s

CCCCc1nc(Cl)c(CO)n1Cc1ccc(-c2ccccc2-c2nn[nH]n2)cc1 [Losartan, potassium losartan]
Systolic blood pressure of artery ([1]; 0 w, losartan 6 mg/kg intragastric qd): 178.3 ± 2.24 mmHg | Systolic blood pressure of artery ([1]; 2 w, losartan 6 mg/kg intragastric qd): 165.1 ± 4.80 mmHg | Systolic blood pressure of artery ([1]; 4 w, losartan 6 mg/kg intragastric qd): 177.1 ± 8.27 mmHg | Systolic blood pressure of artery ([1]; 6 w, losartan 6 mg/kg intragastric qd): 178.3 ± 6.23 mmHg | Systolic blood pressure of artery ([1]; 8 w, losartan 6 mg/kg intragastric qd): 172.6 ± 4.82 mmHg | EF (ejection fraction) [1, 8]: 88.8 ± 2.62% | FS (shortening fraction) [1, 8]: 53.6 ± 3.57% | IVST (intervertricular septum thickness) [1, 8]: 1.87 ± 0.18 mm | LAD (left atrium sinistrum diameter) [1, 8]: 3.25 ± 0.23 mm | LVEDD (left ventricular end diastolic diameter) [1, 8]: 5.05 ± 0.42 mm | LVESD [1, 8]: 2.33 ± 0.18 mm | PWT (left ventricular posterior wall thickness) [1, 8]: 2.25 ± 0.21 mm | SV (stroke volume) [1, 8]: 0.21 ± 0.04 mL | HI [1, 8]: 3.48 ± 0.05 mg/g | HW [1, 8]: 1003 ± 16 mg | LVI [1, 8]: 2.74 ± 0.28 mg/g | LVW [1, 8]: 789 ± 88 mg | morphology of the cardiac muscle tissues, light microscope ([1]; losartan 6 mg/kg intragastric qd, FIG. 2): Pathological changes are somewhat improved | ultrastructure of the SHR cardiocyte, transmission electron microscope ([1]; losartan 6 mg/kg intragastric qd, FIG. 5): morphology of the cellular nucleus is essentially normal and somewhat irregular | CSA in comparison with the model group ([1]; losartan 6 mg/kg intragastric qd, P<0.01): significantly decreased | CSA (cross section area of the cardiocyte) [1, 8]: 335 ± 20** μm^2 | TDM (trans diameter of the cardiocyte) [1, 8]: 13.83 ± 2.54 μm | ratio of mouse LD50/routine dosage [2]: 349

C[C@H](CS)C(=O)N1CCC[C@H]1C(=O)O [captopril]
ratio of mouse LD50/routine dosage [2]: 388

Pentadecapeptide: SEQ ID NO: 9, obtained by deleting amino acid residues 1 to 40 at the N-terminal of SEQ ID NO: 1 (KDTILQLNLKEYNLV; listed as Homo sapiens)
Protein content ([3]; polypeptide 10 nmol/L together with NE 1 μmol/L, 24 h, n = 6, x ± s): 104.3 ± 12.6 μg/10^5 cells | effect on protein content in the hypertrophic cardiocyte induced by NE ([3]; polypeptide at 10 nmol/L): significantly decrease | effect on protein content in the cardiocyte in comparison with Ang II ([4]; polypeptide 10 nmol/L + Ang II): decrease the protein content in the cardiocyte in varying degrees | Protein content ([4]; polypeptide 10 nmol/L together with Ang II 1 μmol/L, 24 h, n = 6, x ± s): 130.6 ± 10.79 μg/10^5 cells | decrease of heart weight ([5]; 30 μg/kg ip bid 15 days with NE, P>0.05): 9.9% | HI (heart index) [5, 9]: 4.27 ± 0.42 mg/g | HW (heart weight) [5, 9]: 100.9 ± 12.8 mg | LVI (left ventricular index or myocardial hypertrophy index) [5, 9]: 3.16 ± 0.39 mg/g | LVW (left ventricular weight) [5, 9]: 74.7 ± 9.25 mg | effect on the left ventricular index ([6]; 15 μg/kg ip bid 20 days with norepinephrine): significantly decrease | HI (heart index) [6, 10]: 3.580 ± 0.226 g/kg | HW (heart weight) [6, 10]: 0.673 ± 0.055 g | LVI (left ventricular index or myocardial hypertrophy index) [6, 10]: 2.606 ± 0.154 g/kg | LVW (left ventricular weight) [6, 10]: 0.490 ± 0.038 g | HI [7]: 3.39 ± 0.10 mg/g | HW [7]: 706 ± 30.8 mg | LVI [7]: 2.01 ± 0.06 mg/g | LVW [7]: 418 ± 12.3 mg | Systolic blood pressure of artery ([1]; 0 w, polypeptide 30 μg/kg ip bid): 177.3 ± 6.42 mmHg | Systolic blood pressure of artery ([1]; 2 w, polypeptide 30 μg/kg ip bid): 190.4 ± 7.75 mmHg | Systolic blood pressure of artery ([1]; 4 w, polypeptide 30 μg/kg ip bid): 200.2 ± 4.13 mmHg | Systolic blood pressure of artery ([1]; 6 w, polypeptide 30 μg/kg ip bid): 217.1 ± 8.82 mmHg | Systolic blood pressure of artery ([1]; 8 w, polypeptide 30 μg/kg ip bid): 224.1 ± 6.37 mmHg | EF (ejection fraction) ([1]; polypeptide 30 μg/kg ip bid): 89.4 ± 3.90% | FS (shortening fraction) ([1]; polypeptide 30 μg/kg ip bid): 55.1 ± 4.33% | IVST (intervertricular septum thickness) ([1]; polypeptide 30 μg/kg ip bid): 1.62 ± 0.20 mm | LAD (left atrium sinistrum diameter) ([1]; polypeptide 30 μg/kg ip bid): 3.39 ± 0.33 mm | LVEDD (left ventricular end diastolic diameter) ([1]; polypeptide 30 μg/kg ip bid): 5.38 ± 0.31 mm | LVESD ([1]; polypeptide 30 μg/kg ip bid): 2.41 ± 0.35 mm | PWT (left ventricular posterior wall thickness) ([1]; polypeptide 30 μg/kg ip bid): 1.96 ± 0.16 mm | SV (stroke volume) ([1]; polypeptide 30 μg/kg ip bid): 0.32 ± 0.05 mL | HI ([1]; polypeptide 30 μg/kg ip bid): 3.44 ± 0.05 mg/g | HW ([1]; polypeptide 30 μg/kg ip bid): 1055 ± 30 mg | LVI ([1]; polypeptide 30 μg/kg ip bid): 2.46 ± 0.04 mg/g | LVW ([1]; polypeptide 30 μg/kg ip bid): 775 ± 28 mg | CSA (cross section area of the cardiocyte) ([1]; polypeptide 30 μg/kg ip bid): 329 ± 24** μm^2 | TDM (trans diameter of the cardiocyte) ([1]; polypeptide 30 μg/kg ip bid): 14.88 ± 2.56 μm
